Experimental data from patent US20240207264A1, “PHARMACEUTICAL COMPOSITIONS COMPRISING INHIBITORS OF THE ANDROGEN RECEPTOR AND USES THEREOF” (ESSA PHARMA INC., priority 2021, published 2024).

Tests used:
[1] = Gastric-to-intestinal buffer (G-IB) transfer dissolution test; format: physicochemical; conditions: 0.5% SIF in PBS pH 6.5, dose 150 μgA/mL
Description: Dissolution: The crystalline Compound A and the five SDD compositions (A-E from Example 4) is were tested in a 2-stage dissolution test designed to evaluate dissolution rate as well as inhibition of crystallization on transfer from simulated gastric to simulated intestinal media. Additionally, SDD composition E was also tested with additional HPMCAS-HF powder at a ratio of 1:1 SDD/HPMCAS-HF (SDD composition F).
For the gastric-to-intestinal buffer (G-IB) transfer dissolution test, pH 2 (“gastric”) media was added to each sample at a target dose concentration of 300 μgA/mL. After 30 minutes of exposure to gastric media, concentrated simulated intestinal buffer (TB) is added to reach a final composition of 0.5% SIF in PBS, pH 6.5 at half the dose concentration (150 μgA/mL). The concentration was monitored by U fiber optic probes in situ as well as being assessed by either microcentrifugation (15,800×g) or ultracentrifugation (380,000×g).
The microcentrifuge separates the precipitate (undissolved drug) and total solubilized drug Total solubilized drug consists of three solubilized species: freely solubilized drug (“free drug”), drug associated with bile salt micelles (“micelle bound drug”), and drug in small aggregate roughly 50-300 nm in size (“colloidal drug”). The ultracentrifuge further separates the colloidal drug and the supernatant contains only free drug and micelle bound drug. […]

[2] = test system: LNCaP; assay: LNCaP prostate cancer xenograft model; format: in vivo; conditions: LNCaP (AR FL), castrated male mice, 30 mg/kg, Solution, qd24
Description: (§1) Compound A's activity was measured in a variety of castrate-sensitive and castrate-resistant prostate cancer (CRPC) xenograft models (Table 32).

[3] = test system: LNCaP95; assay: LNCaP95 prostate cancer xenograft model; format: in vivo; conditions: LNCaP95 (high level AR-V7), castrated male mice, 15 mg/kg, Solution, qd24
Description: as §1

[4] = test system: VCaP tumors; assay: VCaP prostate cancer xenograft model; format: in vivo, SCID Beige male mice; conditions: VCaP (amplified AR, some AR-V7), castrated male mice, 15 mg/kg, Solution, qd24
[5] = test system: PC-3; assay: PC-3 prostate cancer xenograft model; format: in vivo; conditions: PC-3 (non functional AR), intact male mice, 15 mg/kg, Solution, qd28
Description: as §1

[6] = test system: HID28; assay: Enzalutamide resistant patient-derived xenograft (PDX) model HID28; format: in vivo, nude mice; conditions: HID28 PDX (AR+ PSA+), castrated male mice, 15 mg/kg, Solution, qd28
Description: as §1
For example, intact male nude mice were engrafted with HID28 tumor fragments and once tumors reached ˜150 mm^3 the mice were castrated. The mice were enrolled in the experiment once the tumors started to regrow, 10 days post-castration. Compound A was tested in the HID28 PDX model at 60 mg/kg, QD for 28 days using SDD formulation with HPMCAS-H in 0.5% Methocel A4M in water.
Mean tumor volume in castrated nude mice bearing enzalutamide resistant patient-derived xenograft (PDX) model HID28 was measured after oral treatment with solid dispersion composition of Compound A or enzalutamide for 28 days (n=6-7 per group) is shown in FIG. 16B.

[7] = Amorphous solubility by slow addition from organic stock, UV/scattering detection; format: physicochemical; conditions: for solubility: kinetic from dmso stock
Description: Solubility: Generally, the solubility of an amorphous form is higher than that of the corresponding crystal form, due to the lack of crystalline lattice forces in the amorphous state. Solubility of the amorphous form of Compound A was studied by slow addition of the amorphous form from an organic stock solution into the pH 6.5 phosphate-buffered saline (PBS) solution or 0.5% wt simulated intestinal fluid (SIF) in pH 6.5 PBS. When the amorphous solubility is reached, a drug-rich phase forms which typically scatters light (e.g., liquid-liquid phase separation or LLPS), which can be detected by scattering of UV/Visible light and/or by dynamic light scattering (DLS).
No scattering event prior to crystallization was observed.

SMILES: CC(C)(c1ccc(OCc2ccnc(NS(C)(=O)=O)n2)cc1)c1cc(Cl)c(OCCCl)c(C#N)c1 [Crystalline Compound A, N-(4-((4-(2-(3-chloro-4-(2-chloroethoxy)-5-cyanophenyl)propan-2-yl)phenoxy)methyl)pyrimidin-2-yl)methanesulfonamide]
- Concentration, IB (90 min) [1]: 7 μgA/mL

SMILES: CNC(=O)c1ccc(N2C(=S)N(c3ccc(C#N)c(C(F)(F)F)c3)C(=O)C2(C)C)cc1F [Enzalutamide, enzalutamide, reference compound]
- TGI (Tumor Growth Inhibition) [2]: >100%
- TGI (Tumor Growth Inhibition) [3]: <0%
- TGI (Tumor Growth Inhibition) [4]: 66%
- TGI (Tumor Growth Inhibition) [5]: 0%
- TGI (Tumor Growth Inhibition) [6]: <0%

SMILES: CC(C)(c1ccc(OCc2ccnc(NS(C)(=O)=O)n2)cc1)c1cc(Cl)c(OCCCl)c(C#N)c1 [amorphous form of Compound A, N-(4-((4-(2-(3-chloro-4-(2-chloroethoxy)-5-cyanophenyl)propan-2-yl)phenoxy)methyl)pyrimidin-2-yl)methanesulfonamide]
- solubility ([7]; 0.5% wt simulated intestinal fluid (SIF) in pH 6.5 PBS, fassgf or other biorelevant, 0.5% SIF (pH 6.5)): > 25 µg/mL
- solubility ([7]; pH 6.5 phosphate-buffered saline (PBS), aqueous buffer, pH 6.5 PBS): > 2.5 µg/mL
- amorphous solubility relative to crystalline solubility ([7]; simulated intestinal media): at least 20 ×
